Reference: the NIST ThermoML archive (doi:10.1016/j.jct.2014.03.021)

Assay: xn = mol fraction of the nth substance listed
Details: 101 kPa, Liquid; for electrical conductivity: Alternating current cell with electrodes; for speed of sound: Frequency=3 MHz, Sing-around technique in a fixed-path interferometer; for mass density: Vibrating tube method

C[C@H](O)C(=O)[O-].C[N+](C)(C)CCO + O
Details	electrical conductivity [S/m]	mass density [kg/m3]	speed of sound [m/s]
293.15 K, x1 = 0.0258	3	1036.96	1660.5
293.15 K, x1 = 0.0511	2.99	1063.09	1783.4
293.15 K, x1 = 0.074	2.55	1083.32	1872.8
293.15 K, x1 = 0.1027	1.91	1098.55	1930.6
293.15 K, x1 = 0.1443	–	1111.86	1988.4
293.15 K, x1 = 0.1965	0.806	1122.77	1987.8
293.15 K, x1 = 0.2705	–	1132.07	1989.4
293.15 K, x1 = 0.2957	0.344	1133.96	1985.2
293.15 K, x1 = 0.3897	–	1138.61	1975.3
293.15 K, x1 = 0.5347	0.079	1140.95	1955.9
293.15 K, x1 = 0.6044	0.059	1141.68	1952.1
293.15 K, x1 = 0.6931	0.037	1141.39	1942.5
293.15 K, x1 = 0.7565	–	1141.84	1943.3
293.15 K, x1 = 0.798	0.018	–	–
293.15 K, x1 = 0.8375	–	1142.39	1942.6
293.15 K, x1 = 0.8996	0.01	1142.96	1938.8
293.15 K, x1 = 0.94	–	1143.25	1945.2
293.15 K, x1 = 0.9611	–	1143.37	1944.8
298.15 K, x1 = 0.0258	3.35	1035.09	1665.3
298.15 K, x1 = 0.0511	3.42	1060.72	1781.5
298.15 K, x1 = 0.074	2.85	1080.6	1866
298.15 K, x1 = 0.1027	2.29	1095.58	1920.6
298.15 K, x1 = 0.1443	–	1108.71	1968.2
298.15 K, x1 = 0.1965	1.01	1119.53	1974.6
298.15 K, x1 = 0.2705	–	1128.8	1970.9
298.15 K, x1 = 0.2957	0.405	1130.7	1971.5
298.15 K, x1 = 0.3897	–	1135.35	1957.2
298.15 K, x1 = 0.5347	0.108	1137.68	1941.6
298.15 K, x1 = 0.6044	0.089	1138.43	1937.4
298.15 K, x1 = 0.6931	0.046	1138.13	1927.3
298.15 K, x1 = 0.7565	–	1138.58	1923.3
298.15 K, x1 = 0.798	0.029	–	–
298.15 K, x1 = 0.8375	–	1139.15	1922.5
298.15 K, x1 = 0.8996	0.017	1139.75	1922.9
298.15 K, x1 = 0.94	–	1140.05	1921.7
298.15 K, x1 = 0.9611	–	1140.19	1919.6
303.15 K, x1 = 0.0258	3.68	1033.07	1669
303.15 K, x1 = 0.0511	3.86	1058.28	1779.1
303.15 K, x1 = 0.074	3.23	1077.82	1858.9
303.15 K, x1 = 0.1027	2.57	1092.58	1910.5
303.15 K, x1 = 0.1443	–	1105.56	1954.1
303.15 K, x1 = 0.1965	1.19	1116.28	1961.5
303.15 K, x1 = 0.2705	–	1125.54	1958
303.15 K, x1 = 0.2957	0.497	1127.45	1957.9
303.15 K, x1 = 0.3897	–	1132.15	1944.6
303.15 K, x1 = 0.5347	0.145	1134.46	1927.8
303.15 K, x1 = 0.6044	0.106	1135.19	1923.5
303.15 K, x1 = 0.6931	0.059	1134.84	1912.9
303.15 K, x1 = 0.7565	–	1135.3	1909.5
303.15 K, x1 = 0.798	0.047	–	–
303.15 K, x1 = 0.8375	–	1135.92	1908.6
303.15 K, x1 = 0.8996	0.042	1136.57	1908.1
303.15 K, x1 = 0.94	–	1136.9	1905.4
303.15 K, x1 = 0.9611	–	1137.04	1902.3
308.15 K, x1 = 0.0258	4	1030.91	1671.7
308.15 K, x1 = 0.0511	4.22	1055.74	1776
308.15 K, x1 = 0.074	3.67	1074.99	1851.6
308.15 K, x1 = 0.1027	2.95	1089.55	1900.3
308.15 K, x1 = 0.1443	–	1102.31	1940.6
308.15 K, x1 = 0.1965	1.44	1113.02	1948.6
308.15 K, x1 = 0.2705	–	1122.29	1945.2
308.15 K, x1 = 0.2957	0.622	1124.2	1944.6
308.15 K, x1 = 0.3897	–	1129.04	1932
308.15 K, x1 = 0.5347	0.194	1131.34	1914.3
308.15 K, x1 = 0.6044	0.138	1132.01	1909.9
308.15 K, x1 = 0.6931	0.073	1131.57	1899
308.15 K, x1 = 0.7565	–	1132.02	1896.1
308.15 K, x1 = 0.798	0.053	–	–
308.15 K, x1 = 0.8375	–	1132.67	1895.2
308.15 K, x1 = 0.8996	0.056	1133.39	1894
308.15 K, x1 = 0.94	–	1133.76	1890.3
308.15 K, x1 = 0.9611	–	1133.93	1886.6
313.15 K, x1 = 0.0258	4.38	1028.62	1673.4
313.15 K, x1 = 0.0511	4.67	1053.12	1772.3
313.15 K, x1 = 0.074	4.09	1072.09	1843.8
313.15 K, x1 = 0.1027	3.31	1086.48	1890.1
313.15 K, x1 = 0.1443	–	1099.08	1927.4
313.15 K, x1 = 0.1965	1.65	1109.75	1935.7
313.15 K, x1 = 0.2705	–	1118.95	1932.5
313.15 K, x1 = 0.2957	0.735	1120.95	1931.4
313.15 K, x1 = 0.3897	–	1125.94	1919.3
313.15 K, x1 = 0.5347	0.234	1128.21	1901
313.15 K, x1 = 0.6044	0.169	1128.91	1896.5
313.15 K, x1 = 0.6931	0.103	1128.31	1885.6
313.15 K, x1 = 0.7565	–	1128.77	1883
313.15 K, x1 = 0.798	0.069	–	–
313.15 K, x1 = 0.8375	–	1129.44	1882.1
313.15 K, x1 = 0.8996	0.071	1130.23	1880.5
313.15 K, x1 = 0.94	–	1130.63	1876.1
313.15 K, x1 = 0.9611	–	1130.81	1872
318.15 K, x1 = 0.0258	4.99	1026.22	1674
318.15 K, x1 = 0.0511	5.07	1050.42	1768.1
318.15 K, x1 = 0.074	4.55	1069.15	1835.9
318.15 K, x1 = 0.1027	3.83	1083.38	1879.8
318.15 K, x1 = 0.1443	–	1095.34	1914.8
318.15 K, x1 = 0.1965	1.92	1106.48	1922.8
318.15 K, x1 = 0.2705	–	1115.26	1919.8
318.15 K, x1 = 0.2957	0.898	1117.03	1918.3
318.15 K, x1 = 0.3897	–	1122.53	1906.8
318.15 K, x1 = 0.5347	0.262	1125.08	1888
318.15 K, x1 = 0.6044	0.197	1125.81	1883.5
318.15 K, x1 = 0.6931	0.118	1125	1872.5
318.15 K, x1 = 0.7565	–	1125.55	1870.1
318.15 K, x1 = 0.798	0.103	–	–
318.15 K, x1 = 0.8375	–	1126.28	1869.1
318.15 K, x1 = 0.8996	0.084	1127.07	1867.3
318.15 K, x1 = 0.94	–	1127.56	1862.4
318.15 K, x1 = 0.9611	–	1127.75	1858
323.15 K, x1 = 0.0258	5.23	1023.68	1673.8
323.15 K, x1 = 0.0511	5.47	1047.63	1763.2
323.15 K, x1 = 0.074	5.09	1066.16	1827.6
323.15 K, x1 = 0.1027	4.26	1080.24	1869.2
323.15 K, x1 = 0.1443	–	1092.47	1907
323.15 K, x1 = 0.1965	2.18	1103.2	1910
323.15 K, x1 = 0.2705	–	1112.52	1911.6
323.15 K, x1 = 0.2957	1.01	1114.46	1905.2
323.15 K, x1 = 0.3897	–	1119.8	1898.7
323.15 K, x1 = 0.5347	0.318	1121.95	1875
323.15 K, x1 = 0.6044	0.235	1122.71	1870.6
323.15 K, x1 = 0.6931	0.151	1121.7	1859.6
323.15 K, x1 = 0.7565	–	1122.21	1863
323.15 K, x1 = 0.798	0.134	–	–
323.15 K, x1 = 0.8375	–	1123.02	1861.8
323.15 K, x1 = 0.8996	0.144	1123.98	1854.4
323.15 K, x1 = 0.94	–	1124.48	1854.3
323.15 K, x1 = 0.9611	–	1124.69	1849.7
